Measurements from the supplement of paper PMC8633005.

Key:
Experiment in all cases: drug sensitivity score (DSS) (DSS (unitless, 0-50 scale)); higher = more sensitive (stronger viability inhibition); extreme values may be limits of the assay
Conditions in all cases: 72 h; culture: 2D
[1] = tested on: SK-MEL-2
Method in brief: (§1)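 Melanoma cell lines and patient-derived melanoma cultures at 1000–1500 cells per well were exposed in 2D, in 384-well plates, to a 527-compound oncology library at five concentrations spanning a 10,000-fold range for 72 h at 37 °C. CellTiter-Glo luminescence then measured viability. From dose-response curves fitted in the in-house Breeze software, a drug sensitivity score, a modified area-under-curve measure, was obtained.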

[2] = tested on: Bowes
Method in brief: as §1

[3] = tested on: FM-MEL-3
Method in brief: as §1

[4] = tested on: WM852
Method in brief: as §1

[5] = tested on: FM-MEL-2
Method in brief: as §1

[6] = tested on: WM165
Method in brief: as §1

[7] = tested on: SK-MEL-28
Method in brief: as §1

[8] = tested on: FM-MEL-6
Method in brief: as §1

| Structure (SMILES) | drug sensitivity score [1] | drug sensitivity score [2] | drug sensitivity score [3] | drug sensitivity score [4] | drug sensitivity score [5] | drug sensitivity score [6] | drug sensitivity score [7] | drug sensitivity score [8] |
| --- | --- | --- | --- | --- | --- | --- | --- | --- |
| CCC(C)(C)C(=O)O[C@H]1C[C@@H](C)C=C2C=C[C@H](C)[C@H](CC[C@@H]3C[C@@H](O)CC(=O)O3)[C@H]21 [Simvastatin] | 0.1 | 2.8 | 1 | 1 | 0 | 4.5 | 0 | 0.3 |
| CO[C@H]1C[C@@H]2CC[C@@H](C)[C@@](O)(O2)C(=O)C(=O)N2CCCC[C@H]2C(=O)O[C@H]([C@H](C)C[C@@H]2CC[C@@H](O)[C@H](OC)C2)CC(=O)[C@H](C)/C=C(\C)[C@@H](O)[C@@H](OC)C(=O)[C@H](C)C[C@H](C)/C=C/C=C/C=C/1C [Sirolimus] | 0 | 0 | 0.2 | 0 | 0.2 | 4.5 | 0.9 | 1.2 |
| COCCNCc1ccc(-c2cc3nccc(Oc4ccc(NC(=O)C5(C(=O)Nc6ccc(F)cc6)CC5)cc4F)c3s2)nc1 [Sitravatinib] | 0 | 0.6 | 2.6 | 1.9 | 2 | 2.1 | 2.3 | 2.4 |
| Cc1c(C(=O)Nc2ccc(N3C[C@@H](C)O[C@@H](C)C3)nc2)cccc1-c1ccc(OC(F)(F)F)cc1 [Sonidegib] | 0 | 4.1 | 4.1 | 2.5 | 1.5 | 0.2 | 0 | 0.1 |
| C=CCN(/C=C1/C(=O)O[C@H](COC)[C@@]2(C)C1=C(O)C(=O)C1=C2[C@H](OC(C)=O)C[C@]2(C)C(=O)CC[C@@H]12)CC=C [Sonolisib] | 0 | 0 | 0 | 0 | 0 | 0 | 0 | 0 |
| CNC(=O)c1cc(Oc2ccc(NC(=O)Nc3ccc(Cl)c(C(F)(F)F)c3)cc2)ccn1 [Sorafenib] | 0 | 0 | 1.4 | 0 | 1 | 0 | 0 | 0 |
| CN1CCN(c2nc(C3=C(c4c[nH]c5ccccc45)C(=O)NC3=O)c3ccccc3n2)CC1 [Sotrastaurin] | 0 | 0 | 0.3 | 0 | 3.2 | 0 | 0 | 3.7 |
| C=CC(=O)Nc1cccc(Nc2nc(Nc3ccc(OCCOC)cc3)ncc2F)c1 [Spebrutinib] | 0 | 2.1 | 1 | 0.9 | 0.9 | 1.1 | 0.7 | 1 |
| CC(C)n1cnc2c(NCCc3ccc(O)cc3)nc(-c3csc4ccccc34)nc21 [StemRegenin 1] | 0 | 1.1 | 3.4 | 1.3 | 1.5 | 2.5 | 0 | 3.6 |
| CCN(CC)CCNC(=O)c1c(C)[nH]c(/C=C2\C(=O)Nc3ccc(F)cc32)c1C [Sunitinib] | 0 | 0 | 0 | 0 | 0 | 0.8 | 0 | 0 |
| CC(C)(O)CC(=O)NCCn1ccc2ncnc(Nc3ccc(Oc4cccc(C(F)(F)F)c4)c(Cl)c3)c21 [TAK-285] | 0 | 1.4 | 0 | 0 | 0 | 0 | 0 | 0 |
| CCS(=O)(=O)c1cccc(-c2cc(C(=O)NC3CCN(C)CC3)c(C)c3[nH]c4ncc(C)cc4c23)c1 [TAK-901] | 2.4 | 7.3 | 1.9 | 4 | 0.9 | 9.4 | 4.1 | 1.9 |
| Cc1cccc(-c2[nH]c(CNc3ccccc3F)nc2-c2ccc3ncnn3c2)n1 [TEW-7197] | 0 | 0 | 0 | 0 | 0.7 | 0 | 0 | 0 |
| Nc1nc(N)c2nc(-c3cccc(O)c3)c(-c3cccc(O)c3)nc2n1 [TG100-115] | 0 | 2.9 | 0 | 0 | 1.8 | 0 | 0 | 1 |
| CC(C)Oc1ccc(-c2nn([C@@H](C)c3oc4ccc(F)cc4c(=O)c3-c3cccc(F)c3)c3ncnc(N)c23)cc1F [TGR-1202] | 0 | 0.9 | 0 | 1 | 0.9 | 0 | 0 | 0 |
| Cc1cc(C(C)Nc2ccccc2)c2nc(N3CCOCC3)cc(=O)n2c1 (centres undefined) [TGX-221] | 0 | 0.6 | 1.1 | 1.2 | 2.2 | 0.1 | 3.3 | 0.9 |
| Nc1nc(NC2CC2)cc(-c2cccc(Cl)c2Cl)n1 [TH588] | 0 | 0 | 2.2 | 4.3 | 0 | 0.9 | 0 | 0 |

| Structure (SMILES) | drug sensitivity score [1] | drug sensitivity score [2] | drug sensitivity score [3] | drug sensitivity score [4] | drug sensitivity score [5] | drug sensitivity score [6] | drug sensitivity score [7] | drug sensitivity score [8] |
| --- | --- | --- | --- | --- | --- | --- | --- | --- |
| Clc1ccccc1C(c1ccccc1)(c1ccccc1)n1cccn1 [TRAM-34] | 0 | 0 | 0 | 0 | 0 | 0 | 0 | 0 |
| CC(=O)Nc1ccc(C(=O)Nc2ccccc2N)cc1 [Tacedinaline] | 0 | 0 | 2.7 | 1.5 | 1.6 | 0 | 0 | 1.7 |
| C=CC[C@@H]1/C=C(\C)C[C@H](C)C[C@H](OC)[C@H]2O[C@@](O)(C(=O)C(=O)N3CCCC[C@H]3C(=O)O[C@H](/C(C)=C/[C@@H]3CC[C@@H](O)[C@H](OC)C3)[C@H](C)[C@@H](O)CC1=O)[C@H](C)C[C@@H]2OC [Tacrolimus] | 0 | 0.6 | 1.3 | 0.1 | 1.9 | 0 | 0 | 0.1 |
| CN(C(=O)c1ccc(F)cc1C(F)(F)F)C1CCN(c2nnc(-c3ccnn3C)c3ccccc23)CC1 [Taladegib] | 0 | 0 | 0 | 0 | 0.4 | 0 | 0 | 0 |
| Cn1ncnc1[C@H]1c2n[nH]c(=O)c3cc(F)cc(c23)N[C@@H]1c1ccc(F)cc1 [Talazoparib] | 0 | 0 | 2.3 | 0 | 0.4 | 11.7 | 0.1 | 2.3 |
| C[C@@H]1CN(Cc2ccc(F)cc2)[C@@H](C)CN1C(=O)c1cc2c(C(=O)C(=O)N(C)C)cn(C)c2cc1Cl [Talmapimod] | 0 | 0 | 0 | 0 | 0 | 0 | 0 | 0 |
| COc1cc(Nc2ncc(F)c(Nc3ccc4c(n3)NC(=O)C(C)(C)O4)n2)cc(OC)c1OC [Tamatinib] | 0 | 1.3 | 2.7 | 0 | 5.5 | 0.9 | 0 | 0 |
| CC/C(=C(\c1ccccc1)c1ccc(OCCN(C)C)cc1)c1ccccc1 [Tamoxifen] | 0 | 0 | 5.6 | 2.3 | 3.7 | 3.8 | 2.4 | 4.4 |
| COc1cc2c(N3CCN(C(=O)Nc4ccc(OC(C)C)cc4)CC3)ncnc2cc1OCCCN1CCCCC1 [Tandutinib] | 0 | 0 | 0 | 0 | 0 | 0 | 0 | 0 |
| O[C@H]1CC[C@H](Nc2ncc3nc(Nc4c(F)cc(F)cc4F)n([C@H]4CCOC4)c3n2)CC1 [Tanzisertib] | 0 | 0 | 0.1 | 0 | 0 | 0.1 | 0.8 | 0 |
| C[C@@H](C(=O)O)c1ccc(-c2ccccc2)c(F)c1 [Tarenflurbil] | 0 | 0 | 0 | 0 | 0 | 0 | 0 | 0 |
| Cc1nc(-c2cn3c(n2)-c2ccc(-c4cnn(C(C)(C)C(N)=O)c4)cc2OCC3)n(C(C)C)n1 [Taselisib] | 0.2 | 2.8 | 4.7 | 3.5 | 7.4 | 4.2 | 5.6 | 6.6 |
| COc1cccc2c1c(O)c(C(=O)N(C)c1ccc(C(F)(F)F)cc1)c(=O)n2C [Tasquinimod] | 0 | 0 | 0.2 | 0 | 0.9 | 0 | 0 | 0.4 |
| CCN(c1cc(-c2ccc(CN3CCOCC3)cc2)cc(C(=O)NCc2c(C)cc(C)[nH]c2=O)c1C)C1CCOCC1 [Tazemetostat] | 0 | 1.5 | 0 | 0 | 0 | 0 | 0 | 1.3 |
| CNC(=O)c1cc(COc2nnc(Nc3ccc(Cl)cc3)c3ccoc23)ccn1 [Telatinib] | 0 | 0 | 0 | 0.3 | 0 | 0 | 0 | 0.1 |
| Cn1nnc2c(C(N)=O)ncn2c1=O [Temozolomide] | 0 | 0 | 0 | 0 | 0 | 0 | 0 | 0 |
